Measurements as given in ChEMBL document CHEMBL1201862, “PubChem BioAssay data set” (2004).
Activity calls are given as the source filed them.

Legend:
[1] = target: T1, Apoptotic protease-activating factor 1 (Homo sapiens, UniProt O14727); type: functional
T1 sequence (O14727 whole entry): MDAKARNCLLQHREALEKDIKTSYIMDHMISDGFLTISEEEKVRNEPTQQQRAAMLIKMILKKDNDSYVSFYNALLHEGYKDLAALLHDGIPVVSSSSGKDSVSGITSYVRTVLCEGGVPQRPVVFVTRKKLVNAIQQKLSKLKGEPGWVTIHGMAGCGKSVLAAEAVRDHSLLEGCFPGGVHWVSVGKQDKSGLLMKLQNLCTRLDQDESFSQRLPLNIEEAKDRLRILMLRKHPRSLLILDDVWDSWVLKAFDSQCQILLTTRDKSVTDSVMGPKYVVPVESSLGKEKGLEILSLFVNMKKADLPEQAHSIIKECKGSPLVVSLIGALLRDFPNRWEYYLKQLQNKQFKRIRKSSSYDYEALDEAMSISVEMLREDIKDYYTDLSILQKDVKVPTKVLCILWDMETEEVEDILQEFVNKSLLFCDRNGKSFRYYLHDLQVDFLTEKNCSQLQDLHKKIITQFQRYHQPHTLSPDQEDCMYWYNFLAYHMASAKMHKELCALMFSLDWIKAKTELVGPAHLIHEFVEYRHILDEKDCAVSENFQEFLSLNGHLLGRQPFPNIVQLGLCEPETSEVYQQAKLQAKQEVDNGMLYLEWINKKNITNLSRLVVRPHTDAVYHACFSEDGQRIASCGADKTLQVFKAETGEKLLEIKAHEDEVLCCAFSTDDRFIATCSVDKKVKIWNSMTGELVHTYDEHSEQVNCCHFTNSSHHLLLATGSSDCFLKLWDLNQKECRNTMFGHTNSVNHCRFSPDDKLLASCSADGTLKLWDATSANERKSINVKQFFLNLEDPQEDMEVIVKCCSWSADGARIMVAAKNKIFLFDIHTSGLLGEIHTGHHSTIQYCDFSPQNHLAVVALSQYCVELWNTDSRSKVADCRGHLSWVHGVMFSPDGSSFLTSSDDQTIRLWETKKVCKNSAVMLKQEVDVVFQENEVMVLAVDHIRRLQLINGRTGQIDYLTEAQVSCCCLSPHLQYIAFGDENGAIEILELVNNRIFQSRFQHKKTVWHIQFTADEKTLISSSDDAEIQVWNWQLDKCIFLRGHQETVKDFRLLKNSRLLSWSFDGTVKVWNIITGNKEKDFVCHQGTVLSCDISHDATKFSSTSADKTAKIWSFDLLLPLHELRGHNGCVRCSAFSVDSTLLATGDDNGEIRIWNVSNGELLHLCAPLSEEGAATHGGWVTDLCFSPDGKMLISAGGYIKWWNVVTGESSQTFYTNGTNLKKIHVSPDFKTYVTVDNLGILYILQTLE

Protein RecA = target: T2, Protein RecA (Mycobacterium tuberculosis, UniProt P9WHJ3); test: Fluorescence Cell-Free Homogeneous Dose Retest to Identify Inhibitors of RecA-Intein Splicing Activity. [Related pubchem assays (depositor defined):AID2097, AID2223, AID489010, AID492950]; type: functional
T2 sequence (P9WHJ3 whole entry): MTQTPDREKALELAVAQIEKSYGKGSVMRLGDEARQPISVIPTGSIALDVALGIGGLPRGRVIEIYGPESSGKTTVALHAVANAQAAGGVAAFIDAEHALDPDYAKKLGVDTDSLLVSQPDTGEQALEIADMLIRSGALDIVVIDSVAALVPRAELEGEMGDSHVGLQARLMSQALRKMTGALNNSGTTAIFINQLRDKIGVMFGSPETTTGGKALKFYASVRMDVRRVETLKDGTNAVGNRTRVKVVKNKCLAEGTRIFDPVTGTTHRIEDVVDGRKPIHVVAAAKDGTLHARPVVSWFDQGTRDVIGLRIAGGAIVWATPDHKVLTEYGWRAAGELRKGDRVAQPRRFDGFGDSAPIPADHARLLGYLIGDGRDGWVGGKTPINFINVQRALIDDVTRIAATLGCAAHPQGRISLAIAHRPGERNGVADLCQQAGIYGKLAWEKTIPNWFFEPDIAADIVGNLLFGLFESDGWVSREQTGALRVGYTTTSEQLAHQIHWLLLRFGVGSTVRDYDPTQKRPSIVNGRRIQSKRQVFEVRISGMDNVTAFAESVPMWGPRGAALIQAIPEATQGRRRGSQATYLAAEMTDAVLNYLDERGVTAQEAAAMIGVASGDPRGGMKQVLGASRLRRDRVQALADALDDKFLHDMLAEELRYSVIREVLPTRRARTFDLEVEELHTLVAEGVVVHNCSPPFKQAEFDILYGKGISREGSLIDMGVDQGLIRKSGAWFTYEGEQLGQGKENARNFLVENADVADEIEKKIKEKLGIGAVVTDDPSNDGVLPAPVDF

[2] = target: Tyrosyl-DNA phosphodiesterase 2 (Homo sapiens, UniProt O95551); test: potency against TDP2 phosphodiesterase activity – biochemical, epi absorbance, IC50, dose response (AID 743297)
[3] = target: Testis-specific serine/threonine-protein kinase 2 (Homo sapiens, UniProt Q96PF2); type: functional;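 note: part of the Navigating the Kinome panel, target entry STK22B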
SRSF protein kinase 1 = SRSF protein kinase 1 (Homo sapiens, UniProt Q96SB4); type: functional;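 note: measured as one member of a kinome-wide kinase profiling panel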
[4] = target: Tyrosine-protein kinase Lyn (Homo sapiens, UniProt P07948); type: functional;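 note: lyn as one member of a kinase panel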
Insulin receptor = Insulin receptor (Homo sapiens, UniProt P06213); type: functional;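 note: insulin receptor kinase tested as one member of a kinome-wide kinase panel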
[5] = target: Mitogen-activated protein kinase kinase kinase 20 (Homo sapiens, UniProt Q9NYL2); type: functional
[6] = target: Mitogen-activated protein kinase kinase kinase kinase 2 (Homo sapiens, UniProt Q12851); type: functional;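 note: measured as one member of a kinome-wide kinase panel, with MAP4K2 as the panel entry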
Misshapen-like kinase 1 = Misshapen-like kinase 1 (Homo sapiens, UniProt Q8N4C8); type: functional;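 note: kinome panel screen with MINK as the panel member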
[7] = target: Maternal embryonic leucine zipper kinase (Homo sapiens, UniProt Q14680); type: functional
[8] = target: Serine/threonine-protein kinase DCLK1 (Homo sapiens, UniProt O15075); type: functional;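 note: affinity for DCLK1 (listed as DCAMKL1) measured as one member of a kinome-wide kinase profiling panel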
[9] = target: Lymphokine-activated killer T-cell-originated protein kinase (Homo sapiens, UniProt Q96KB5); type: functional;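 note: value comes from a kinase panel screen in which TOPK was one of the panel members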
[10] = target: Serine/threonine-protein kinase BRSK1 (Homo sapiens, UniProt Q8TDC3); type: functional;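 note: measured within a kinome-wide kinase panel, with the target listed as KIAA1811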
Serine/threonine-protein kinase BRSK1, sequence (Q8TDC3 whole entry): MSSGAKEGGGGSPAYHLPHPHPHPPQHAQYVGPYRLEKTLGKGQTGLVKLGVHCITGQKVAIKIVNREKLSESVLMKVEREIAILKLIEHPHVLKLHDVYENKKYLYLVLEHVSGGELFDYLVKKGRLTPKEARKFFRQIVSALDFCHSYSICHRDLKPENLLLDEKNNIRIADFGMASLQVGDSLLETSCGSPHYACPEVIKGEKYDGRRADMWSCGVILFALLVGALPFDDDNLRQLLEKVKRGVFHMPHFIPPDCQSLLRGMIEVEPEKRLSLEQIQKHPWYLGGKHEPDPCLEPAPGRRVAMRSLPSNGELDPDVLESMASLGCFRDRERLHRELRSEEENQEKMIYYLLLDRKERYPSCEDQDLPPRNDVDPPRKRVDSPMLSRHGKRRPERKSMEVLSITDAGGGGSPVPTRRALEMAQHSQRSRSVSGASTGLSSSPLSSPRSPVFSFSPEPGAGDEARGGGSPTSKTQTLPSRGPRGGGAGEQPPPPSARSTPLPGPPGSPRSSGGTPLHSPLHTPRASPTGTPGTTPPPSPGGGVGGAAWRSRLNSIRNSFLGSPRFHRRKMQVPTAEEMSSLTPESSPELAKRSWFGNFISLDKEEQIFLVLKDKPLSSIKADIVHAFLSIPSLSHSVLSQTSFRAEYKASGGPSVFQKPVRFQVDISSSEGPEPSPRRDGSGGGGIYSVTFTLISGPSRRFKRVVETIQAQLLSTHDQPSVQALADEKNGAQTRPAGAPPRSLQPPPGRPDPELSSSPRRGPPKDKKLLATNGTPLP

Misshapen-like kinase 1, sequence (Q8N4C8 whole entry): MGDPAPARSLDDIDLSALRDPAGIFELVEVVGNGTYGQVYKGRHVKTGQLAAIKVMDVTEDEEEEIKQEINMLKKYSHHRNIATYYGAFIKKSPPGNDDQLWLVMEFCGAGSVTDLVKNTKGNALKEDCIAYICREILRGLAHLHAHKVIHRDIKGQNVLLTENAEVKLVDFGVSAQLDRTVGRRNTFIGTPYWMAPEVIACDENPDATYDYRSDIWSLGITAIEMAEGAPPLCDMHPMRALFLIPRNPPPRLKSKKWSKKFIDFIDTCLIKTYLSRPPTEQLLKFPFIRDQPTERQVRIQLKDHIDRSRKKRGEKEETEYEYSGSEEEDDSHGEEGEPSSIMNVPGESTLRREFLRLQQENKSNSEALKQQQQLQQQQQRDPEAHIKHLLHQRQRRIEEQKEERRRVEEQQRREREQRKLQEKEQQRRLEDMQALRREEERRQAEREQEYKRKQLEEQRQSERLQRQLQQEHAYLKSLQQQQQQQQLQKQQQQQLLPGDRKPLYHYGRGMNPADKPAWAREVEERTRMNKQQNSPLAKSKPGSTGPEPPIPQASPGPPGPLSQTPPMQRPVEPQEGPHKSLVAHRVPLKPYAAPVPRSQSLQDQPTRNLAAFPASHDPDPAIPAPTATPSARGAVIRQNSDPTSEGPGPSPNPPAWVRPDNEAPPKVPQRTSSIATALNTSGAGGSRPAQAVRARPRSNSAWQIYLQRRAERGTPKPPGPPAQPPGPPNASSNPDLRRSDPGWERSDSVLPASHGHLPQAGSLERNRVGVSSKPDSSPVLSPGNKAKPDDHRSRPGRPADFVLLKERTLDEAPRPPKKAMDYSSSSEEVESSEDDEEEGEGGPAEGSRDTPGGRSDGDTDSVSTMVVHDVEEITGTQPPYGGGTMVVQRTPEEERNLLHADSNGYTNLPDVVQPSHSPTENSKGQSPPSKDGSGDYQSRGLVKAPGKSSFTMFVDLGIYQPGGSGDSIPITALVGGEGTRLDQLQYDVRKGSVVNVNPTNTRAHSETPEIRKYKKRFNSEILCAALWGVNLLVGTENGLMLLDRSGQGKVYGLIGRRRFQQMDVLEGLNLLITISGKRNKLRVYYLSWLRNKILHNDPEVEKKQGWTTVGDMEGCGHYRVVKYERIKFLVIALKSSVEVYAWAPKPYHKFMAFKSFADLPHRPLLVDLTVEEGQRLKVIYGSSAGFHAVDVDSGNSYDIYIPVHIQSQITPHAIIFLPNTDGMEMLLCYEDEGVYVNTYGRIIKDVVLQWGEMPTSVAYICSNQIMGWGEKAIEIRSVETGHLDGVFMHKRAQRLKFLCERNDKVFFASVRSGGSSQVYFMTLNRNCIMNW
Serine/threonine-protein kinase DCLK1, sequence (O15075 whole entry): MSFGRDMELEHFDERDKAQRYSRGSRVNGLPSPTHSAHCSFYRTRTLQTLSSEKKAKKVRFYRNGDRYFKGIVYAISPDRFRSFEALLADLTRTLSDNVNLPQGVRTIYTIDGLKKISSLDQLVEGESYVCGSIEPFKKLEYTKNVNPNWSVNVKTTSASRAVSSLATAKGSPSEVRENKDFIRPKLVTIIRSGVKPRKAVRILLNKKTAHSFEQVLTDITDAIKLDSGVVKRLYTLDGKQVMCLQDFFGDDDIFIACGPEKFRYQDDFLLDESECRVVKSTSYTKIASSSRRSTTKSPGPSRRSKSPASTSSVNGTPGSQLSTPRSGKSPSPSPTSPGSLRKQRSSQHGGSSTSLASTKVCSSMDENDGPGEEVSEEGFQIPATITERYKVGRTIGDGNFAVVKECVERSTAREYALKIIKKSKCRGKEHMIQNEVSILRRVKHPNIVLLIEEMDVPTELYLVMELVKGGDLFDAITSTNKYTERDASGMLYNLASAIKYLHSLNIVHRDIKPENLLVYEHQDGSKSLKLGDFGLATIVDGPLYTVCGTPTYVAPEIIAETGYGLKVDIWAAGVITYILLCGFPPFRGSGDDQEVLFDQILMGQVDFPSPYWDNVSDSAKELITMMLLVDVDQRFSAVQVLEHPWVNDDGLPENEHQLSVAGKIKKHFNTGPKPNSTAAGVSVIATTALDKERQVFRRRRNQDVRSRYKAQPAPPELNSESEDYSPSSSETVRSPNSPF
Tyrosine-protein kinase Lyn, sequence (P07948 whole entry): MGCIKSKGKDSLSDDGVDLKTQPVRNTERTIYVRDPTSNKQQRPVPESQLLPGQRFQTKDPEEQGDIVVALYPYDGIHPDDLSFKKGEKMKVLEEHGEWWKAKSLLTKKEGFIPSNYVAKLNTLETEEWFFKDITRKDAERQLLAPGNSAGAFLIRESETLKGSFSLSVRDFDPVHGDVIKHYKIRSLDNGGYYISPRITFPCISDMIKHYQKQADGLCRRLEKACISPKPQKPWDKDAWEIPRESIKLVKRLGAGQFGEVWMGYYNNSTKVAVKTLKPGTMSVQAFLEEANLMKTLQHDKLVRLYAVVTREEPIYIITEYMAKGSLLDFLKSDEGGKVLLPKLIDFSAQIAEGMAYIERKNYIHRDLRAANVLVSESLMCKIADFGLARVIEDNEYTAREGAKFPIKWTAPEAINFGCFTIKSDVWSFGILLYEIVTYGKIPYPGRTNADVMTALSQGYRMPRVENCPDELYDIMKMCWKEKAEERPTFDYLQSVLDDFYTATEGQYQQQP
Mitogen-activated protein kinase kinase kinase 20, sequence (Q9NYL2 whole entry): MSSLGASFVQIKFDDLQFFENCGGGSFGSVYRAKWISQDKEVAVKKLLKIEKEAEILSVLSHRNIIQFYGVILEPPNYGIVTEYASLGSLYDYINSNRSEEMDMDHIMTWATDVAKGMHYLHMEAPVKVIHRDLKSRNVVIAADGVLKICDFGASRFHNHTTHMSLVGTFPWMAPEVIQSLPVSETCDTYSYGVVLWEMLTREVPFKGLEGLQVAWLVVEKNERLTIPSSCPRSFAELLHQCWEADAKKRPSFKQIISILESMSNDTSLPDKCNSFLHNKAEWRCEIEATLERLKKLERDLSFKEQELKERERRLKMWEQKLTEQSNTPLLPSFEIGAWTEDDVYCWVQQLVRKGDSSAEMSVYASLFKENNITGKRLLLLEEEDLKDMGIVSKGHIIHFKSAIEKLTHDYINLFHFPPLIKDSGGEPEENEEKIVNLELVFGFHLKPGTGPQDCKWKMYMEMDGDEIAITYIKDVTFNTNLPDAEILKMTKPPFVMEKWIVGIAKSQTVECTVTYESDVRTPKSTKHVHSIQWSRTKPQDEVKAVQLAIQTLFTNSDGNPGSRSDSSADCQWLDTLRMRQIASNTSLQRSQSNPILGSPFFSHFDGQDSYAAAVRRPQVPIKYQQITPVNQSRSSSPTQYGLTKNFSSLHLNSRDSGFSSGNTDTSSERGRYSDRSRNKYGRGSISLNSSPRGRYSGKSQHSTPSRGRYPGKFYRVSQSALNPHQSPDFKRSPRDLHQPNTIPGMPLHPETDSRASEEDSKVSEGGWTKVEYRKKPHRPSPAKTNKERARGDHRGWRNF
SRSF protein kinase 1, sequence (Q96SB4 whole entry): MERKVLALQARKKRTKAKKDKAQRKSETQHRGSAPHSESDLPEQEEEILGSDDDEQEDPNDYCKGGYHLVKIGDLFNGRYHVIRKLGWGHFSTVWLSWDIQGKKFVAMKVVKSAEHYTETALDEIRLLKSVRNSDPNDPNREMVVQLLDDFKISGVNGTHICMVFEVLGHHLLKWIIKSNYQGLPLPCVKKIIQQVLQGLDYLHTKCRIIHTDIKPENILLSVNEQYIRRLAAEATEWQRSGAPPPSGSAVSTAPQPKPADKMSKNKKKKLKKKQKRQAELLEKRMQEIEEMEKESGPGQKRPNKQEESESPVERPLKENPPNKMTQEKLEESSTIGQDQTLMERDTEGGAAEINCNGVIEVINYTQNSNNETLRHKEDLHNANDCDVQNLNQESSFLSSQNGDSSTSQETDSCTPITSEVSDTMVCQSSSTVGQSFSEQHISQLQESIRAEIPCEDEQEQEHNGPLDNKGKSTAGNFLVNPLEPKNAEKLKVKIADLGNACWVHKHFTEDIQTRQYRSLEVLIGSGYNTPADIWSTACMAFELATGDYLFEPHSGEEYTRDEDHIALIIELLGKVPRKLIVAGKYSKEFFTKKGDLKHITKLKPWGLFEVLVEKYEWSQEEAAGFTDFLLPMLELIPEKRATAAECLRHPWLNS

SMILES	IC50 [1]	EC50 (Protein RecA)	IC50 [2]	Ki [3]	Ki (SRSF protein kinase 1)	Ki [4]	Ki (Insulin receptor)	Ki [5]	Ki [6]	Ki (Misshapen-like kinase 1)	Ki [7]	Ki [8]	Ki [9]	Ki [10]
COc1ccc(C(C[N+](=O)[O-])c2c(C)[nH]n(-c3ccccc3)c2=O)cc1 (centres undefined)	14600 nM (active)	3300 nM (active)	6910 nM (active)	–	–	–	–	–	–	–	–	–	–	–
Oc1c2ccccc2c2c3c(cccc13)N=N2 [SP-600125]	–	–	–	> 1580 nM (inactive)	> 7940 nM (inactive)	1000 nM (active)	501 nM (active)	501 nM (active)	50.1 nM (active)	200 nM (active)	398 nM (active)	> 10000 nM (inactive)	1000 nM (active)	794 nM (active)
